Several values for one entry are separate records, joined by “and”; a condition that tells them apart may be missing. Equal entries are not always repeated. Non-standard residues stand in square brackets, D forms with d. No end group written: not given here.
How the values were obtained:
[1] = system: peripheral blood cells of MS patients; experiment: Frequency of APL-responsive peripheral blood T cells after dosing of MS patients (split-well); assay type: in vivo, human
Method: Patients received either 10 or 20 mg of APL NBI-5788 (weekly for four weeks). Peripheral blood cells were collected from four patients approximately one year after dosing, as well as from 14 MS patients who had not received the APL and from two normal, healthy volunteers. The frequency of response to the peptide was determined using the split-well technique. Cells were seeded in 48 wells/plate, as well as 12 control wells without antigenic stimulation, at a density of 1×10^5 cells/well. Cells were set up in IMDM+10% human plasma pool+penicillin/streptomycin 100 U/ml+gentamycin 50 μg/ml +2 mM L-glutamine (or complete media, CM). Peptide antigen (25 μg) was added and then included for no more than one feeding with media. At day 12, the medium was changed to CM without IL-2. Two days later, the split-wells were established. The wells were resuspended with a multichannel pipetor, 100 μl of the cell suspension was transferred to adjacent wells on a new plate (daughter plate) and mixed with 100 μl of media containing 1×10^5 antigen presenting cells (peripheral blood lymphocytes, PBL irradiated with 3000 R in CM with or without antigen; 25 μg/ml). After 48 hours of culturing, 100 μl of supernatant was removed from the daughter plate for later cytokine determination and stored at -70° C.
For the proliferation assay, ^3H-thymidine (0.5 μCi) was added to the daughter plate and the plates reincubated for an additional 8 hours. The wells were then harvested onto filter mats and the level of ^3H-thymidine incorporation determined using beta scintillation. Counts greater than three-fold over background were considered positive.

[2] = system: NBI-5788-reactive or MBP-reactive T cell lines from MS patients; experiment: Cross-reactivity of T cell lines (TCL) from MS patients, 3H-thymidine proliferation; assay type: cell-based, human
Method: To evaluate the degree of NBI-5788-specific reactivity induced by NBI-5788 treatment, we determined whether NBI-5788-reactive T cell lines generated from untreated or NBI-5788-treated patients cross-reacted with whole MBP or MBP peptide 83-99. T cell lines were generated from positive cultures in the frequency analysis by an additional cycle of co-culture with antigen. Specificity of positive lines was tested by culturing 2×10^4 T cells/well in triplicate with whole MBP, MBP83-99, NBI-5788 or medium alone in the presence of 10^5 APCs in a final volume of 200 μl/well. Two days later supernatants were pooled from replicate wells and frozen at −80° C. Wells were then pulsed with [^3H]-thymidine (1 μCi/well) for the final 18 hours of culture.

[3] = system: Dr2a restricted human T cell clone reactive to MBP; experiment: Human T cell proliferation, Dr2a restricted clone; assay type: cell-based
Method: (§1) Human T cells reactive to MBP (83-99) may alternatively be used to measure the ability of the peptide analog to inhibit proliferation of T cells induced by native MBP (83-99) peptide. MBP-specific T cells may be obtained as previously described by Martin et al., J. Immunol. 148:1359-1366, 1992. Briefly, T cell lines are established by culture of human T cells with irradiated, DR-matched peripheral blood cells in MEM supplemented with 2 mM L-glutamine, 50 μg/ml gentamicin, penicillin and streptomycin, 100 U/ml rIL-2, and 10% human AB negative serum. Proliferation of these T cell lines is stimulated by culturing a clone with varying concentration (1.1-30 μM) of native […] peptide, 50 μM of the peptide analog or SWM peptide, in the presence of irradiated, DR matched peripheral blood cells, following incubation for approximately 60 hours, the cells are pulsed with ^3H-thymidine for 12 hours and harvested. The amount of incorporated ^3H-thymidine is measured.
The ability of the peptide analogs NBI-5719, 5748, 5765, 5788 and 5789 (SEQ ID NOs: 4-8 respectively) to affect human T cell proliferation was assessed. […] The amount of tritiated thymidine incorporated was measured, and the data represented as the mean plus or minus the standard error of the mean of replicate samples.
The potency of NBI-5788 (SEQ ID NO:7) was then determined by varying concentrations of the APL. […]

[4] = system: Dr2b restricted human T cell clones reactive to MBP; experiment: Human T cell proliferation, Dr2b restricted clones; assay type: cell-based
Method: as §1
The ability of the peptide analogs NBI-5719, 5748, 5765, 5788 and 5789 (SEQ ID NOs: 4-8 respectively) to affect human T cell proliferation was assessed. A constant amount of peptide analog or the control peptide SWM (50 μM) was cultured with varying concentrations of native MBP(83-99) peptide (1.1-30 μM) in the presence of irradiated, DR matched peripheral blood cells and T cell clones derived from various MS patients. Human T cells (1×10^6) were cultured with DR matched, irradiated peripheral blood cells (PBL, 5×10^6) in medium containing IMDM supplemented with 3 μM MBP83-99, 2 mM L-glutamine, 50 μg/ml gentamicin penicillin/streptomycin, 100 U/ml r1L-2 and 10% human AB-negative serum. Cells were cultured for approximately 60 hours, pulsed with tritiated thymidine for 12 hours, and harvested. The amount of tritiated thymidine incorporated was measured, and the data represented as the mean plus or minus the standard error of the mean of replicate samples.
The ability of the peptide analog to inhibit the proliferative response of MBP-reactive T cells isolated from Dr2b (DrB1* 1501) individuals was determined. A constant amount of NBI-5788 (50 μM) was cultured with varying concentrations of native peptide (1.1-30 μM) in the presence of irradiated, DR matched peripheral blood cells and T cell clones derived from various MS patients.

[5] = patient MS-1, dose 20 mg, TCL 4

“MBP(83-99) (83E>a, 84N>K, 89F>L, and 91K>A) ([dA]KPVVHLFANIVTPRTP) [NBI-5788]” was tested, and the “Percent Reactivity (frequency of APL NBI-5788-reactive T cells)” value ([1]; 10 mg (n = 1)) was 23%, the “frequency of APL responsive wells (SI>3), individual patient” value ([1]; 10 mg weekly for four weeks, about one year after dosing) was 23% and the “Percent Reactivity (frequency of APL NBI-5788-reactive T cells)” value ([1]; 20 mg (n = 3)) was 39 ± 18%. For the same substance, the “frequency of APL responsive wells (SI>3), individual patients” value ([1]; 20 mg weekly for four weeks, about one year after dosing, listed as APL) was 11% and 32% and 72%, the “APL specific lines from treated patients cross reacting with native MBP (83-99)” value ([1]; human, in vivo) was 6/31 and the “APL specific lines from treated patients reacting with whole MBP” value ([1]; human, in vivo) was 4/31. The “whole MBP-reactive TCL from treated patients cross-reacting with NBI-5788” value ([2]; 1 of 35 TCL) was 2.9%, the “NBI-5788-reactive TCL from treated patients cross-reacting with whole MBP” value ([2]; 1 of 43 TCL) was 2.3% and the “NBI-5788-reactive TCL from treated patients cross-reacting with both MBP83-99 and whole MBP” value ([2]; 2 of 43 TCL) was 4.7%. The “whole MBP-reactive TCL from treated patients cross-reacting with MBP83-99 and NBI-5788” value ([2]; 3 of 35 TCL) was 8.6%, the “whole MBP-reactive TCL from treated patients cross-reacting with MBP-83-99” value ([2]; 6 of 35 TCL) was 17.1% and the “NBI-5788-reactive TCL from treated patients cross-reacting with MBP83-99” value ([2]; 12 of 43 TCL) was 27.9%. For the same substance, the “proliferative response of MBP-reactive TCL to antigen” value ([2]; patient MS-1, dose 20 mg, TCL 2) was 6,090 ± 102, the “proliferative response of MBP-reactive TCL to antigen” value [2, 5] was 4,164 ± 123 and the “proliferative response of NBI-5788-reactive TCL to antigen” value [2, 5] was 4,112 ± 349. The “proliferative response of MBP-reactive TCL to antigen” value ([2]; patient MS-1, dose 20 mg, TCL 5) was 3,115 ± 56, the “proliferative response of MBP-reactive TCL to antigen” value ([2]; patient MS-1, dose 20 mg, TCL 10) was 2,794 ± 152 and the “proliferative response of MBP-reactive TCL to antigen” value ([2]; patient MS-1, dose 20 mg, TCL 14) was 15,780 ± 214. The “proliferative response of MBP-reactive TCL to antigen” value ([2]; patient MS-1, dose 20 mg, TCL 26) was 2,559 ± 74, the “proliferative response of NBI-5788-reactive TCL to antigen” value ([2]; patient MS-1, dose 20 mg, TCL 36) was 18,259 ± 2011 and the “proliferative response of MBP-reactive TCL to antigen” value ([2]; patient MS-1, dose 20 mg, TCL 45) was 2,559 ± 637. The “proliferative response of MBP-reactive TCL to antigen” value ([2]; patient MS-2, dose 20 mg, TCL 14) was 2,566 ± 421, the “proliferative response of MBP-reactive TCL to antigen” value ([2]; patient MS-3, Pretreat., TCL 9) was 6,468 ± 586 and the “proliferative response of NBI-5788-reactive TCL to antigen” value ([2]; patient MS-3, dose 20 mg, TCL 2) was 19,315 ± 1,310. The “proliferative response of NBI-5788-reactive TCL to antigen” value ([2]; patient MS-3, dose 20 mg, TCL 4) was 50,630 ± 11,709, the “proliferative response of NBI-5788-reactive TCL to antigen” value ([2]; patient MS-3, dose 20 mg, TCL 18) was 10,308 ± 1,283 and the “proliferative response of NBI-5788-reactive TCL to antigen” value ([2]; patient MS-3, dose 20 mg, TCL 30) was 48,278 ± 1,070. The “proliferative response of MBP-reactive TCL to antigen” value ([2]; patient MS-4, dose 20 mg, TCL 7) was 7,492 ± 716, the “proliferative response of NBI-5788-reactive TCL to antigen” value ([2]; patient MS-4, dose 20 mg, TCL 18) was 26,017 ± 802 and the “proliferative response of NBI-5788-reactive TCL to antigen” value ([2]; patient MS-5, dose 20 mg, TCL 15) was 32,597 ± 1,856. For the same substance, the “proliferative response of NBI-5788-reactive TCL to antigen” value ([2]; patient MS-5, dose 20 mg, TCL 39) was 24,326 ± 3,724, the “proliferative response of NBI-5788-reactive TCL to antigen” value ([2]; patient MS-5, dose 20 mg, TCL 43) was 16,726 ± 1,121 and the “proliferative response of NBI-5788-reactive TCL to antigen” value ([2]; patient MS-6, dose 10 mg, TCL 22) was 43,085 ± 1,376. For the same substance, the “proliferative response of NBI-5788-reactive TCL to antigen” value ([2]; patient MS-6, dose 10 mg, TCL 38) was 24,195 ± 613, the “proliferative response of NBI-5788-reactive TCL to antigen” value ([2]; patient MS-7, dose 5 mg, TCL 12) was 17,749 ± 1,784 and the “proliferative response of NBI-5788-reactive TCL to antigen” value ([2]; patient MS-7, dose 5 mg, TCL 28) was 3,505 ± 1,446. For the same substance, the “proliferative response of MBP-reactive TCL to antigen” value ([2]; patient MS-7, dose 5 mg, TCL 46) was 1,298 ± 113, the “proliferative response of MBP-reactive TCL to antigen” value ([2]; patient MS-8, Placebo, TCL 26) was 944 ± 259 and the “proliferative response of MBP-reactive TCL to antigen” value ([2]; patient MS-8, Placebo, TCL 28) was 1,437 ± 97. The “proliferative response of MBP-reactive TCL to antigen” value ([2]; patient MS-8, Placebo, TCL 38) was 16,931 ± 1938, the “proliferative response of MBP-reactive TCL to antigen” value ([2]; patient MS-8, Pretreat., TCL 22) was 2,636 ± 270 and the “proliferative response of MBP-reactive TCL to antigen” value ([2]; patient MS-8, Pretreat., TCL 31) was 936 ± 123. For the same substance, the “proliferative response of MBP-reactive TCL to antigen” value ([2]; patient MS-8, Pretreat., TCL 47) was 3,448 ± 1,980, the “inhibition of proliferative response of Dr2a restricted T cell clone to MBP(83-99)” value ([3]; 50 μM peptide, MBP(83-99) 1.1-30 μM, FIGS. 13 and 14) was “inhibited the ability of a human Dr2a restricted T cell clone to respond” and the “inhibition of response of Dr2a T cell line to MBP(83-99), potency” value ([3]; APL 2, 10 or 50 μM, effect at both 10 and 50 μM, SWM 50 μM, FIG. 15) was “significantly altered the ability of the Dr2a T cell line to respond to MBP(83-99)”. The “inhibition of response of Dr2b T cell clones to MBP peptide” value ([4]; 50 μM, three different T cell lines, FIGS. 16-18) was “inhibited the ability of the T cell clones to respond to MBP peptide in a concentration dependent fashion” and the “inhibition of MBP-dependent proliferation of clone 5F6” value ([4]; Dr2b restricted clone 5F6, 50 μM, FIG. 19) was “inhibited the MBP-dependent proliferation in a concentration dependent fashion”.

— patent US6379670B1, “Methods for treatment of multiple sclerosis using peptide analogs of human myelin basic protein” (Neurocrine Biosciences, Inc., priority 1994, dated 2002)
